Results taken from patent US20110135588A1, “Hair Conditioning Composition Comprising Quaternized Silicone Polymer, Silicone Copolymer, and Carbamate” (priority 2009, published 2011).

Test: Product appearance (compatibility with the quaternized silicone polymer and/or solvent thereof): silicone particle size observed by microscope
Format: physicochemical
Conditions: preservative used together with quaternized silicone polymer and its solvent
Experimental: Product Appearance (Compatibility with the Quaternized Silicone Polymer and/or Solvent Thereof)
Product appearance is evaluated as follows, by silicone particle size in compositions which was observed using micro scope.
Pass: Average silicone particle size is 200 μm or less
Fail: Average silicone particle size is above 200 μm (excluding 200 μm)

C/C=C/C=C/C(=O)[O-].[K+] [potassium sorbate]
Agglomeration of quaternized silicone polymer (product appearance): form agglomerates

O=C(O)c1ccccc1O [salicylic acid]
Agglomeration of quaternized silicone polymer (product appearance): form agglomerates
